In ChEMBL document CHEMBL1134339, “New 1-aryl-3-(4-arylpiperazin-1-yl)propane derivatives, with dual action at 5-HT1A serotonin receptors and serotonin transporter, as a new class of antidepressants” (J Med Chem, 2001):

Experiments:
[1] = target: T1, 5-hydroxytryptamine receptor 3A (Rattus norvegicus, UniProt P35563); assay: Affinity at 5-hydroxytryptamine 3 receptor (For granisetron = Ki (nM)=0.3+/-0.01)
T1 sequence (P35563 whole entry): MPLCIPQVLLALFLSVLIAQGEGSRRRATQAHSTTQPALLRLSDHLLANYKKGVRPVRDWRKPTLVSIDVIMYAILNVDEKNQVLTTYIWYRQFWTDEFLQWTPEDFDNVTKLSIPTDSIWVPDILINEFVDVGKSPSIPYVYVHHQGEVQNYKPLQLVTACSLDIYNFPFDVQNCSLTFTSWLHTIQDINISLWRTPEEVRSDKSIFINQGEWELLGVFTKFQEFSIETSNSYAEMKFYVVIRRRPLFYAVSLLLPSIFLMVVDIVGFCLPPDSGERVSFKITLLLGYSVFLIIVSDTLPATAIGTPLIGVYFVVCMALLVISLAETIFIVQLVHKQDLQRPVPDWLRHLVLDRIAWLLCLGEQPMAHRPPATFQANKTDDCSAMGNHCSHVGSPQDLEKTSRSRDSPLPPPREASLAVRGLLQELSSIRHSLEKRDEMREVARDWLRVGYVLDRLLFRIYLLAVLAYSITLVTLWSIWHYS

[2] = tested on: Rattus norvegicus; assay: Effect on helpless behavior in rats and the number of escape failures was determined in shuttle-box session-3 (SB-3) at 10 mg/kg dose; assay type: functional
[3] = tested on: Mus musculus; assay: Time-dependent effect on 8-OH-DPAT-induced hypothermia (change in body temperature) after 30 min, in mice at 0.01 mg/kg dose; assay type: functional

Row | Ki [1] | Compound | No. of escape failures [2] | Temperature change [3]
1 | > 5 µM | COc1ccccc1N1CCN(CCC(=O)c2csc3ccccc23)CC1 |  | 
2 |  | COc1ccccc1N1CCN(CCC(O)c2csc3ccccc23)CC1 (stereo not drawn) | 4 | -1.3 °C
